Assays:
in vivo = settings: 30 mg/kg
Description: Our established UPLC-MS/MS method was used to quantify pioglitazone concentrations in plasma and brain samples harvested at different time points (1, 2, 4, 6, and 8 hours) after mice were given either racemic pioglitazone or (+)-pioglitazone.
Error bar represents one SD.
A total of forty mice were split into two treatment groups (n = 20), with one group receiving a single dose of the racemic pioglitazone (30 mg/kg, p.o.) and another group receiving the purified (+)-pioglitazone (30 mg/kg, p.o.). Both compounds were dissolved in Milli-Q water using 1% DMSO as co-solvent. Following oral administration of the test compounds, mice from both treatment groups were split again into five subgroups (n = 4), and mice belonging to different subgroups were sacrificed at different time points (1 hour, 2 hours, 4 hours, 6 hours, and 8 hours after oral dosing). All mice were sacrificed by CO2 euthanasia and blood samples were taken via cardiac puncture. Blood samples were then centrifuged at 4000 g (10 minutes) to collect the plasma. Whole brains were collected following transcardial perfusion with saline to remove blood from organs. […] Pioglitazone concentrations versus time graphs were constructed for both brain and plasma samples, and area under curve (AUC) for both (+)-pioglitazone and racemic pioglitazone were then used to assess each tissue's exposure to pioglitazone. AUC was calculated from time 0 hour to infinity (AUC0–∞) for both types of samples using the trapezoidal rule. Comparisons of pioglitazone concentrations in different sample matrices between the two treatment groups were performed using two-tailed independent t-test with Welch's correction, and statistical significance was defined as P < 0.05.

CHO-APP695 cells = assay: Extracellular amyloid-β42 lowering in CHO-APP695 (sandwich ELISA); format: cell-based, Chinese hamster; settings: 48 hours; for effect on increase in extracellular amyloid-β42: 10 μM, versus non-treated CHO-APP695
Description: Figure 4 Extracellular amyloid-β42 levels in culture media samples harvested from both CHO-WT and treated or non-treated CHO-APP695 following 48 hours of post-seeding incubation.
CHO (Chinese hamster ovary) cells stably transfected with mouse APP 695 (CHO-APP695) were used as the AD in vitro model in this experiment. CHO-APP695 and the wild type (CHO-WT) were kindly provided by G. S. Dawe (National University of Singapore, Singapore). Both cell lines were incubated at 37°C in the presence of 5% CO2 for all cell culture work. Cell lines were maintained in DMEM culture medium (Sigma D1152) containing 10% FBS and supplemented with 100 units/mL of penicillin and 100 μg/mL of streptomycin.
When cells were used for experiments, both CHO-APP695 and CHO-WT were standardised at third passage and harvested for seeding when the cells were at log-phase growth. Cells were seeded (n = 7) on 24-well cell culture plates at 1 × 10^5 cells/well in 0.5 mL of culture medium. To evaluate amyloid-lowering effects of (+)-pioglitazone and racemic pioglitazone on extracellular amyloid-β42 levels, additional groups (n = 7) of CHO-APP695 treated with (+)-pioglitazone, (+)-pioglitazone + T007, racemic pioglitazone, and racemic pioglitazone + T007 were also seeded. […] Upon completion of seeding after 24 hours, the culture medium in each well was replaced with 0.5 mL of fresh medium. Seeded cells were incubated further for 48 hours before the culture medium was individually harvested. Harvested samples were briefly centrifuged (800 g) for 5 minutes at 4°C before supernatants were transferred into clean 1.8-mL cryogenic vials and snap frozen in liquid nitrogen. All harvested samples were stored at −80°C until analysis.
Amyloid-β42 levels in culture media were harvested 48 hours after seeding incubation and were quantitatively measured using colorimetric sandwich ELISA kits according to the protocols provided by the manufacturer (#SIG-38954 and #SIG-38956 from Covance, Princeton, NJ). […] All absorbance readings were measured using a Tecan Infinite M200 microplate reader (Tecan, Switzerland).

BCRP = tested on: BCRP; parameters: method as in PMID 22828996; settings: 5 mg/kg; mice; cited from earlier work
[1] = In vivo investigation of P-gp and BCRP contributions to limited brain penetration of pioglitazone (brain-to-plasma ratio after transporter inhibitor pre-treatment); settings: C57BL/6, mouse, in vivo, 30 mg/kg
Description: (§1) All animals were pre-treated with the respective drug transporter inhibitor(s) 30 minutes before administration of pioglitazone. Thirty minutes after treatment with pioglitazone, all animals were sacrificed and plasma and brain samples were collected. […] The brain-to-plasma ratios of pioglitazone concentrations were used to assess penetration of brain tissue.
(§2) Figure 1 All animals were pre-treated with either the vehicle or the respective drug-transporter inhibitor (n = 6 for each treatment group) 30 minutes prior to drug treatment. Plasma and brain samples were then collected from the animals 30 minutes after pioglitazone treatment. (A) Pioglitazone levels in plasma samples harvested from mice given i.p. pioglitazone with or without pre-treatment of LY335979 (P-gp blocker) and/or Ko143 (BCRP blocker). (B) Brain-to-plasma ratios of pioglitazone concentrations calculated for each mouse given i.p. pioglitazone with or without pre-treatment of LY335979 and/or Ko143.
(§3) A total of 24 mice were divided into four treatment groups (n = 6), where three groups received pre-treatment of efflux pump inhibitors (P-gp inhibitor LY335979, BCRP inhibitor Ko143, and a combination of LY335979 + Ko143) and one group received vehicle pre-treatment as a control. All test compounds (pioglitazone, LY335979, and Ko143) were dissolved in Milli-Q water using 1% DMSO as co-solvent. Pre-treatments of LY335979 (25 mg/kg), Ko143 (5 mg/kg) or a combination of both were given in a single intra-peritoneal (i.p.) injection 30 minutes before pioglitazone administration (i.p. injection, 30 mg/kg). […] Following another 30 minutes after pioglitazone administration, all mice were sacrificed by CO2 euthanasia and their blood samples were collected via cardiac puncture into Eppendorf tubes supplemented with heparin. Transcardial perfusion with saline was then performed on the sacrificed mice to remove traces of blood from organs before the whole brain tissues were harvested. All biological samples were kept on ice immediately after collection. […]

[2] = tested on: P-gp and BCRP drug efflux transporters at the blood-brain-barrier; assay: as above
Description: as §1, §2, §3

[3] = parameters: method as in PMID 21819568; settings: monkeys; cited from earlier work
[4] = rats, dogs, and monkeys; cited from earlier work
P-gp = tested on: P-gp; parameters: method as in PMID 10820137; settings: 25 mg/kg; mice; cited from earlier work

CCc1ccc(CCOc2ccc(C[C@H]3SC(=O)NC3=O)cc2)nc1 (single isomer, unassigned) [(+)-pioglitazone]
brain AUC0–∞ / brain exposure higher than after racemic pioglitazone (in vivo; mouse): 76% | brain AUC0–∞ of pioglitazone (in vivo; mouse, po): 40 µg·h/mL | brain Cmax of pioglitazone (in vivo; mouse, po): 5070 ± 380 ng/mL | peak time (Tmax) of plasma pioglitazone (in vivo; mouse, po): 1 h | plasma AUC0–∞ of pioglitazone (in vivo; mouse, po): 274 µg·h/mL | plasma concentration maximum (Cmax) of pioglitazone (in vivo; mouse, po): 39920 ± 6200 ng/mL | treatment effect on extracellular amyloid-β42 on co-administration of PPARγ selective blocker (T007) (CHO-APP695 cells; 10 μM each): nullified | effect on increase in extracellular amyloid-β42 (CHO-APP695 cells): reduced significantly

COc1ccc2c3c([nH]c2c1)[C@H](CC(C)C)N1C(=O)[C@H](CCC(=O)OC(C)(C)C)NC(=O)[C@@H]1C3 [Ko143]
inhibition of BCRP (BCRP): 50%

CCc1ccc(CCOc2ccc(CC3SC(=O)NC3=O)cc2)nc1 (stereo not drawn) [pioglitazone, Pioglitazone]
Kp at 30 min [1]: 0.107 ± 0.0125 | transporter substrate status ([2]; mouse, in vivo): substrate of P-gp | pioglitazone brain-to-plasma concentration ratio ([2]; vehicle pre-treatment (control), pioglitazone 30 mg/kg i.p., 30 minutes after pioglitazone, n = 6): 10.65% | AUC(0-inf) (in vivo; C57BL/6, mouse, po): 262 µg·h/mL | Cmax (in vivo; C57BL/6, mouse, po): 53500 ± 8070 ng/mL | Tmax (in vivo; C57BL/6, mouse, po): 1 h | brain AUC0–∞ of pioglitazone (in vivo; C57BL/6, mouse, po): 22.7 µg·h/mL | brain Cmax of pioglitazone (in vivo; C57BL/6, mouse, po): 4880 ± 340 ng/mL | effect on increase in extracellular amyloid-β42 (CHO-APP695 cells): reduced significantly | cerebral spinal fluid (CSF) concentration as % of plasma concentrations [3]: less than 3% | share of serum pioglitazone found in the CSF [4]: approximately 18%

LY335979
inhibition of P-gp (P-gp): 50%

— article PMC5390903, “Influence of drug transporters and stereoselectivity on the brain penetration of pioglitazone as a potential medicine against Alzheimer's disease” (Scientific Reports, 2015)
